Source: US20220340598A1, “PYRAZOLOPYRIDINONE COMPOUNDS” (Janssen Pharmaceutica NV, priority 2017, published 2022)

Experiments:
[1] = target: T1, human FGFR3 V555M enzyme (cytoplasmic domain carrying V555M mutation) (Homo sapiens, UniProt P22607, V555M); assay: FGFR3 V555M mobility shift assay (enzymatic assay); type: biochemical; conditions: 30 μM ATP, 45 minutes at 30° C., Caliper EZ reader II
T1 construct: human FGFR3 V555M enzyme (cytoplasmic domain carrying V555M mutation, from Carna Biosciences)
T1 sequence (P22607 397-806 V555M): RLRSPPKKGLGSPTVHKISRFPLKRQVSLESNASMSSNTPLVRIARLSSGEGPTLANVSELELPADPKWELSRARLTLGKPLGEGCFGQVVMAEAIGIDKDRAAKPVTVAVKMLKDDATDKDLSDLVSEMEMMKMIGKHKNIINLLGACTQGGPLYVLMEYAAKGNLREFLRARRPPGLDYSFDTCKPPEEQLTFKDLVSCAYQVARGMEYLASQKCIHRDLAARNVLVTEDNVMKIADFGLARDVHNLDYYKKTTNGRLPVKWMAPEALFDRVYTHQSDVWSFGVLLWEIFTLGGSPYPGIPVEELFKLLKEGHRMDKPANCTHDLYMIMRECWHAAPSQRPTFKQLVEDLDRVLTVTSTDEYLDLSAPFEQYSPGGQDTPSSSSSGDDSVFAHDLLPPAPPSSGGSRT
Description: FGFR3 V555M Mobility Shift Assay (Enzymatic Assay)
(§1) In a final reaction volume of 25 μL, 0.04 ng/μL human FGFR3 V555M enzyme (cytoplasmic domain carrying V555M mutation, from Carna Biosciences) was incubated with 30 μM ATP, 1 μM FL-peptide 30 substrate and 250 nL of testing compound (1% DMSO final) in assay buffer (100 mM HEPES pH 7.4, 10 mM MgCl2, 0.003% Brij35, 1 mM DTT). After incubation for 45 minutes at 30° C. the reaction was stopped with 10 μL of 0.5M EDTA pH 8.0, and then 25 μL of reaction mixture was transferred to reading plate and measured on Caliper EZ reader II.

[2] = target: T2, human FGFR3 wild type enzyme (cytoplasmic domain) (Homo sapiens, UniProt P22607); assay: FGFR3 wild type mobility shift assay (enzymatic assay); type: biochemical; conditions: 75 μM ATP, 50 minutes at 30° C., Caliper EZ reader II
T2 construct: human FGFR3 wild type enzyme (cytoplasmic domain, from Carna Biosciences)
T2 sequence (P22607 397-806): as the sequence (P22607 397-806 V555M) above, with M159V counted along it
Description: FGFR3 Wild Type Mobility Shift Assay (Enzymatic Assay)
as §1, with “FGFR3 wild type” for “FGFR3 V555M”, “(cytoplasmic domain,” for “(cytoplasmic domain carrying V555M mutation,”, “with 75” for “with 30”, “for 50” for “for 45”

[3] = target: T3, NIH/3T3 cells overexpressing FGFR3 V555M-TACC3 fusion protein (Homo sapiens, UniProt P22607, V555M, cells depend on it); assay: NIH/3T3 FGFR3 V555M-TACC3 cell proliferation assay; type: cell-based; conditions: 72-hr incubation, CellTiter Glo; read-out: NIH/3T3 FGFR3 V555M-TACC3 CTG (IC50)
T3 construct: fused on or other part: Q9Y6A5 (Transforming acidic coiled-coil-containing protein 3)
T3 sequence (P22607 whole entry V555M, the tested form may be a part): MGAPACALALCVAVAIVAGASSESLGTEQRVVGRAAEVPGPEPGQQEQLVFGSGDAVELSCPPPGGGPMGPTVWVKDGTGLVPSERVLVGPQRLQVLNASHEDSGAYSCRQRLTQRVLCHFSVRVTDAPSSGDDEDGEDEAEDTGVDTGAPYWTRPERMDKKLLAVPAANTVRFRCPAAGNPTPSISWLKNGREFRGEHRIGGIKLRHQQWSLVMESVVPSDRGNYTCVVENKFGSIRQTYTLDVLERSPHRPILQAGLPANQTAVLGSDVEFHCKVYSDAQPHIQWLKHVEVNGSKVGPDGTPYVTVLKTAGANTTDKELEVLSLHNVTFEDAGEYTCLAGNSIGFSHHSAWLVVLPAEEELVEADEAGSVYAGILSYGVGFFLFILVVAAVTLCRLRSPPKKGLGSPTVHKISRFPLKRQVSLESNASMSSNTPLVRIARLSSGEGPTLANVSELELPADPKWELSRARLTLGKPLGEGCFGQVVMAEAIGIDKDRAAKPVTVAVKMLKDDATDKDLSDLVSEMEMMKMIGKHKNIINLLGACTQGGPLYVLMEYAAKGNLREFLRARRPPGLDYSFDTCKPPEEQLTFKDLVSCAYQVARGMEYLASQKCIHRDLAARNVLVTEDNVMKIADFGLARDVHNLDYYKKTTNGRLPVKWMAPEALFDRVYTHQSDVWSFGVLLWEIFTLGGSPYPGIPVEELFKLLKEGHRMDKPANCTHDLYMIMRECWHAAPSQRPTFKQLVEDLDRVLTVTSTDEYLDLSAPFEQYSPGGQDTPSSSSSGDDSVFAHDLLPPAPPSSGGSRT
Description: NIH/3T3 FGFR3 V555M-TACC3 Cell Proliferation Assay
(§2) In day 1, 90 μL of cell suspension (NIH/3T3 cells overexpressing FGFR3 V555M-TACC3 fusion protein) (total 30,000 cells per well in growth medium (DMEM containing 1% Glutamax, 10% FBS and 1% Pen/Strep)) was seeded in a 96-well plate and then incubated overnight at 37° C. and 5% CO2. In day 2, 10 μL of growth medium containing 10-fold stock solution of testing compound was added into cell cultures (9 dose points with 4× serial dilution, starting with 10 μM, 0.1% DMSO final). After 72-hr incubation at 37° C. and 5% CO2, in day 5 a volume of 50 μL CellTiter Glo (CTG) reagent was added into cell-containing 96-well plate and the plate was incubated at room temperature for 10 minutes before RLUs (relative light unit) were measured on a microplate reader with luminescence detection module. The RLU value was normalized to survival % and concentration-response curve was plotted using Prism to calculate IC50 (M), pIC50 (−log IC50) and HillSlope value.

[4] = target: T4, NIH/3T3 cells overexpressing FGFR3 WT-TACC3 fusion protein (Homo sapiens, UniProt P22607); assay: NIH/3T3 FGFR3 WT-TACC3 cell proliferation assay; type: cell-based; conditions: 72-hr incubation, CellTiter Glo; read-out: NIH/3T3 FGFR3 WT-TACC3 CTG (IC50)
T4 construct: fused on or other part: Q9Y6A5 (Transforming acidic coiled-coil-containing protein 3)
T4 sequence (P22607 whole entry, change not shown, the tested form may be a part): as the sequence (P22607 whole entry V555M, the tested form may be a part) above, with M555V counted along it
Description: NIH/3T3 FGFR3 WT-TACC3 Cell Proliferation Assay
as §2, with “WT-TACC3” for “V555M-TACC3”

Compound	IC50 [1]	IC50 [2]	GI50 [3]	GI50 [4]
COc1ccc2nc(-c3c(NC(C)c4ncccn4)c4nn(C)cc4[nH]c3=O)[nH]c2c1 (single isomer, unassigned) [Compound 1, (S*)-6-(6-Methoxy-1H-benzo[d]imidazol-2-yl)-2-methyl-7-((1-(pyrimidin-2-yl)ethyl)-amino)-2H-pyrazolo[4,3-b]pyridin-5(4H)-one]	0.27 nM	0.75 nM	4.07 nM	4.72 nM
CCn1cc2[nH]c(=O)c(-c3nc4cc(OC)c(OC)cc4[nH]3)c(NC(C)c3cocn3)c2n1 (single isomer, unassigned) [Compound 5A, (S*)-6-(5,6-Dimethoxy-1H-benzo[d]imidazol-2-yl)-2-ethyl-7-((1-(oxazol-4-yl)ethyl)amino)-2H-pyrazolo[4,3-b]pyridin-5(4H)-one]	1.56 nM	7.67 nM	50.4 nM	33.6 nM
CCn1cc2[nH]c(=O)c(-c3nc4cc(OC)c(OC)cc4[nH]3)c(NC(C)c3cocn3)c2n1 (single isomer, unassigned) [Compound 5C, (R*)-6-(5,6-Dimethoxy-1H-benzo[d]imidazol-2-yl)-2-ethyl-7-((1-(oxazol-4-yl)ethyl)amino)-2H-pyrazolo[4,3-b]pyridin-5(4H)-one]	315 nM	978 nM		
CC(C)C(Nc1c(-c2nc3ccc(C(=O)N(C)C)cc3[nH]2)c(=O)[nH]c2cn(C)nc12)c1ncccn1 (single isomer, unassigned) [Compound 10, (S*)—N,N-dimethyl-2-(2-methyl-7-((2-methyl-1-(pyrimidin-2-yl)propyl)amino)-5-oxo-4,5-dihydro-2H-pyrazolo[4,3-b]pyridin-6-yl)-1H-benzo[d]imidazole-6-carboxamide]	0.673 nM	2.57 nM	31.9 nM	54.2 nM
CC[C@H](Nc1c(-c2nc3ccc(OC)cc3[nH]2)c(=O)[nH]c2cn(C)nc12)c1ncccn1 (single isomer, unassigned) [Compound 16, (S*)-6-(6-Methoxy-1H-benzo[d]imidazol-2-yl)-2-methyl-7-((1-(pyrimidin-2-yl)propyl)amino)-2H-pyrazolo[4,3-b]pyridin-5(4, H)-one]	342 nM	1360 nM		
COCCOc1cc2[nH]c(-c3c(NC(c4ncccn4)C(C)C)c4nn(C)cc4[nH]c3=O)nc2cc1OC (single isomer, unassigned) [Compound 36, (S*)-6(5-methoxy-6-(2-methoxyethoxy)-1H-benzo[d]imidazol-2-yl)-2-methyl-7-((2-methyl-1-(pyrimidin-2-yl)propyl)amino)-2H-pyrazolo[4,3-b]pyridin-5(4H)-one]		7.75 nM	21.5 nM	25 nM
CCC(Nc1c(-c2nc3cc(OC)c(OC)cc3[nH]2)c(=O)[nH]c2cn(CC)nc12)c1ncccn1 (single isomer, unassigned) [Compound 45, (R*)-6-(5,6-dimethoxy-1H-benzo[d]imidazol-2-yl)-2-ethyl-7-((1-(pyrimidin-2-yl)propyl)amino)-2H-pyrazolo[4,3-b]pyridin-5(4H)-one]	347 nM	602 nM		
CCn1cc2[nH]c(=O)c(-c3nc4c(F)c(OC)c(OC)cc4[nH]3)c(N[C@@H](C)c3ncccn3)c2n1 [Compound 41, (S)-2-ethyl-6-(4-fluoro-5,6-dimethoxy-1H-benzo[d]imidazol-2-yl)-7-((1-(pyrimidin-2-yl)ethyl)amino)-2H-pyrazolo[4,3-b]pyridin-5(4H)-one]			55.6 nM	46.5 nM
CCOc1ccc2nc(-c3c(N[C@@H](C)c4ncccn4)c4nn(CC)cc4[nH]c3=O)[nH]c2c1 [Compound 50, (S)-6-(6-ethoxy-1H-benzo[d]imidazol-2-yl)-2-ethyl-7-((1-(pyrimidin-2-yl)ethyl)amino)-2,4-dihydro-5H-pyrazolo[4,3-b]pyridin-5-one]			40.9 nM	28.7 nM
CCOc1cc2nc(-c3c(N[C@@H](C)c4ncccn4)c4nn(CC)cc4[nH]c3=O)[nH]c2cc1OCC [Compound 52, (S)-6-(5,6-diethoxy-1H-benzo[d]imidazol-2-yl)-2-ethyl-7-((1-(pyrimidin-2-yl)ethyl)amino)-2H-pyrazolo[4,3-b]pyridin-5(4H)-one]			18.8 nM	16.1 nM

The remaining lines, values ahead:

IC50 [1]	IC50 [2]	GI50 [3]	GI50 [4]	Compound
0.803 nM	4.33 nM	200 nM	202 nM	CC(C)C(Nc1c(-c2nc3ccc(C(N)=O)cc3[nH]2)c(=O)[nH]c2cn(C)nc12)c1ncccn1 (single isomer, unassigned) [Compound 9, (S*)-2-(2-methyl-7-((2-methyl-1-(pyrimidin-2-yl)propyl)amino)-5-oxo-4,5-dihydro-2H-pyrazolo[4,3-b]pyridin-6-yl)-1H-benzo[d]imidazole-6-carboxamide]
32.8 nM	39.5 nM			CCn1cc2[nH]c(=O)c(-c3nc4ccc(OC)cc4[nH]3)c(N[C@H](C)c3cocn3)c2n1 (single isomer, unassigned) [Compound 34, (R*)-2-ethyl-6-(6-methoxy-H-benzo[d]imidazol-2-yl)-7-((1-(oxazol-4-yl)ethyl)amino)-2H-pyrazolo[4,3-b]pyridin-5(4H)-one]
	7.14 nM	13.3 nM	73.8 nM	C[C@H](Nc1c(-c2nc3ccc(F)cc3[nH]2)c(=O)[nH]c2cn(C)nc12)c1ncccn1 [Compound 28, (S)-6-(6-Fluoro-1H-benzo[d]imidazol-2-yl)-2-methyl-7-((1-(pyrimidin-2-yl)ethyl)amino)-2H-pyrazolo[4,3-b]pyridin-5(4H)-one]
		4.15 nM	3.19 nM	CCOc1cc2nc(-c3c(N[C@@H](C)c4ncccn4)c4nn(C)cc4[nH]c3=O)[nH]c2cc1OCC [Compound 53, (S)-6-(5,6-diethoxy-1H-benzo[d]imidazol-2-yl)-2-methyl-7-((1-(pyrimidin-2-yl)ethyl)amino)-2,4-dihydro-5H-pyrazolo[4,3-b]pyridin-5-one]
		21.6 nM	11.5 nM	CCn1cc2[nH]c(=O)c(-c3nc4ccc(OCCOC)cc4[nH]3)c(N[C@@H](C)c3ncccn3)c2n1 [Compound 54, (S)-2-ethyl-6-(6-(2-methoxyethoxy)-1H-benzo[d]imidazol-2-yl)-7-((1-(pyrimidin-2-yl)ethyl)amino)-2H-pyrazolo[4,3-b]pyridin-5(4H)-one]
		11.8 nM	17400 nM	COc1cc2[nH]c(-c3c(N[C@@H](C)c4ncccn4)c4nn(C)cc4[nH]c3=O)nc2c(F)c1OC [Compound 55, (S)-6-(4-fluoro-5,6-dimethoxy-1H-benzo[d]imidazol-2-yl)-2-methyl-7-((1-(pyrimidin-2-yl)ethyl)amino)-2H-pyrazolo[4,3-b]pyridin-5(4H)-one]
		13.1 nM	18.4 nM	COc1cc2nc(-c3c(N[C@@H](C)c4ccccn4)c4nn(C)cc4[nH]c3=O)[nH]c2cc1OC [Compound 56, (S)-6-(5,6-dimethoxy-1H-benzo[d]imidazol-2-yl)-2-methyl-7-((1-(pyridin-2-yl)ethyl)amino)-2H-pyrazolo[4,3-b]pyridin-5(4H)-one]
